Results published in patent US20170274004A1, “TREATMENT OF CANCER USING TLR9 AGONIST WITH CHECKPOINT INHIBITORS” (IDERA PHARMACEUTICALS, INC., priority 2014, published 2017).

Key:
Assay type in all cases: in vivo, BALB/c mice
[1] = tested on: A20 cells; assay: Intratumoral vs subcutaneous TLR9 agonist in A20 lymphoma model (Example 2)
Description: BALB/c mice (n=10) were implanted s.c with 3×10^6 A20 cells on the right flank. Treatment was initiated on day 8 with either intratumoral (i.t.) or subcutaneous (s.c.) injection of 2.5 mg/kg IMO-4. IMO-4 was given on days 8, 10, 12 and 14. Samples from placebo (PBS) control and IMO-4 treated tumor-bearing mice were collected on day 21 after tumor implantation. […] Intratumoral IMO-4 also modulated tumor checkpoint expression compared to subcutaneous administration thereby sensitizing the tumor microenvironment for combination with one or more checkpoint inhibitors (data not shown).

[2] = tested on: A20 lymphoma; assay: Intratumoral TLR9 agonist in A20 lymphoma model, treated and distant tumors (Example 3)
[3] = tested on: CT26 cells; assay: Intratumoral TLR9 agonist in CT26 colon carcinoma model, treated and distant tumors (Example 4)
Description: (§1) BALB/c mice (n=9) were implanted s.c with 2×10^6 CT26 cells on the right and left flank. Treatment was initiated on day 7 with intratumoral injection in the left flank with 2.5 mg/kg IMO-4. IMO-4 was given on days 7, 9, 11, 13 and 15. Samples from placebo (PBS) control and IMO-4 treated tumor-bearing mice were collected on day 27 after tumor implantation. […] Intratumoral IMO-4 also modulated tumor checkpoint expression thereby sensitizing the tumor microenvironment for combination with one or more checkpoint inhibitors (data not shown).

[4] = tested on: B16 cells; assay: Intratumoral TLR9 agonist in B16 melanoma model, treated and distant tumors (Example 5)
Description: as §1, with “s.c with 1×10^6 B16 cells on” for “s.c with 2×10^6 CT26 cells on”, “flank with of 2.5 mg/kg” for “flank with 2.5 mg/kg”, “on day 22 after tumor” for “on day 27 after tumor”

[5] = tested on: murine colon carcinoma CT26 cells; assay: TLR9 agonist and anti-PD-1 mAb combination, CT26 treated and distant tumors (Example 7); settings: FIG. 11
Description: BALB/c mice (n=8 per group) were implanted s.c with 1×10^7 murine colon carcinoma CT26 cells in right flank (Tumor 1) and left flank (Tumor 2). Treatment was initiated on day 7 when tumor volume on reaches 200 to 300 mm^3. 2.5 mg/kg IMO-4 (50 μg in 100 μl PBS) was i.t injected at right tumor nodules and anti-PD-1 mAb (10 mg/kg, 200 μg/mouse) was administered by i.p injection either alone or co-administered on days 7, 8, 11 and 12 for total 4 times. Tumor nodules were collected at day 14.

[6] = tested on: CT26 cells; assay: TLR9 agonist and anti-IDO1 inhibitor combination, CT26 treated tumors and systemic lung metastases (Example 9); settings: compared with PBS group (nodules infiltrating most of the lung tissues); FIG. 16 legend
Description: BALB/c mice were implanted s.c with 1×10^7 CT26 cells on right flank. The mice were than i.v injected with 3×10^6 CT26 cells to establish lung metastases. Treatment was initiated on day 4. 2.5 mg/kg IMO-4 was administered intratumorally into solid tumors on the right flank and 75 mg/kg anti-IDO1 inhibitor was administered orally (p.o.). IMO-4 and anti-IDO1 inhibitor were given either alone or co-administered on days 4, 5, 7, and 8. Anti-IDO1 was administered twice. Samples from control, IMO-4, anti-IDO1 inhibitor or IMO-4 and anti-IDO1 inhibitor treated tumor-bearing mice were collected. FIGS. 14 through 17 show the effects of IMO-4 and anti-IDO1 inhibitor on directly treated tumors and systemic lung metastasis.

Substance: 5-TCGAACG1TTCG1-X-G1CTTG1CAAG1CT-5′ (chain 1 TCGAACGTTCG; chain 2 TCGAACGTTCG; two copies joined 3'-3' by glycerol linker; G1 modified; modified_base (3)..(3) 2′-deoxy-7-deazaguanosine; modified_base (7)..(7) 2′-deoxy-7-deazaguanosine; modified_base (11)..(11) 2′-deoxy-7-deazaguanosine) [IMO-4]
- antitumor activity ([1]; intratumoral 2.5 mg/kg on days 8, 10, 12, 14, FIG. 3): potent antitumor activity
- CD3+ TIL infiltration ([1]; intratumoral 2.5 mg/kg, samples day 21, FIG. 3): induced
- tumor checkpoint expression ([1]; intratumoral compared to subcutaneous administration, data not shown): modulated
- antitumor activity, treated and distant tumor nodules ([2]; intratumoral in left flank, 2.5 mg/kg on days 8, 10, 12, 14, FIG. 4): potent antitumor activity in both treated and distant tumor nodules
- tumor checkpoint expression ([2]; intratumoral, data not shown): modulated
- antitumor activity, treated and distant tumor nodules ([3]; intratumoral in left flank, 2.5 mg/kg on days 7, 9, 11, 13, 15, FIG. 5): potent antitumor activity in both treated and distant tumor nodules
- tumor checkpoint expression ([3]; intratumoral, data not shown): modulated
- antitumor activity, treated and distant tumor nodules ([4]; intratumoral in left flank, 2.5 mg/kg on days 7, 9, 11, 13, 15, FIG. 6): potent antitumor activity in both treated and distant tumor nodules
- tumor checkpoint expression ([4]; intratumoral, data not shown): modulated
- CD3+ cells in tumor tissue ([5]; compared with few CD3+ cells in PBS (vehicle) mice): a large number of CD+3 cells
- T lymphocyte infiltration into tumor tissues ([5]; tumor nodules collected day 14): increases
- tumor nodules in lung tissues [6]: tumor nodules are smaller than that of the PBS group
